From US8323971B2, “Differentiation of pluripotent cells into primary germ layer progenitors” (Cambridge Enterprise Limited, priority 2006, dated 2012)

System: hESCs
Assay: Microarray analysis of hESCs grown 36 h in CDM alone or CDM plus BMP4
Format: cell-based, human
Conditions: hESCs 36 h, CDM plus 10 ng/ml BMP4 vs CDM alone
From the text: The change in RNA expression of genes associated with particular cell types is indicated in the following panels. […] In all tables, the ‘margin’ value represents the fold change in mRNA expression (log 2 scale) with a negative value indicating down regulation after BMP4 treatment compared to CDM alone.
Sample RNA was hybridized to Affymetrix hg-u133+2 GeneChips ©. All sample arrays were background corrected, normalized and summarized using default parameters of the RMA model. Array processing was performed using the affy package of the Bioconductor (found on the world wide web at the hypertext protocol transfer address of “bioconductor.org”) suite of software for the R statistical programming language (found on the world wide web at the hypertext protocol transfer address of “r-project.org”). The resulting data set contained processed gene expression values for 54675 probe-sets. Analysis of Differential Regulation: The moderated t-statistic […], implemented in the Limma package of Bioconductor, was employed to assess the significance of differential gene (probe-set) expression between sample groups. In order to reduce errors associated with multiple hypothesis testing on such a scale, the significance p-values obtained were converted to corrected q-values using the FDR method.
Data Visualisation: Heat maps of gene expression were created by importing relevant subsets of RMA processed microarray gene expression data into the dChip v1.3 microarray analysis package (found on the world wide web at the hypertext protocol transfer address of “biostat.harvard.edu/complab/dchip/”). In the case wherein a gene is represented by more than one probe-set on the array, a single probe-set was chosen to represent gene expression in the heat map according to highest mean expression over all samples (i.e. the most reliable sample hybridization regardless of group membership).

For “BMP4: Bone Morphogenetic Protein 4 growth factor”, the “Margin, ACTC mRNA” value was 4.16 log 2 scale, the “Margin, ADRA2A mRNA” value was −2.49 log 2 scale and the “Margin, AGTRL1 mRNA” value was 4.35 log 2 scale. The “Margin, AK3 mRNA” value was −2.55 log 2 scale, the “Margin, ARGBP2 mRNA” value was −3.43 log 2 scale and the “Margin, BAMBI mRNA” value was 3.86 log 2 scale. For the same substance, the “Margin, C2orf31 mRNA” value was −2.72 log 2 scale, the “Margin, C10orf13 mRNA” value was −2.63 log 2 scale and the “Margin, C14orf29 mRNA” value was −2.44 log 2 scale. The “Margin, CACNA2D3 mRNA” value was −2.42 log 2 scale, the “Margin, CDH11 mRNA” value was 3.81 log 2 scale and the “Margin, CFC1 mRNA” value was 4.45 log 2 scale. The “Margin, CHST9 mRNA” value was −2.54 log 2 scale, the “Margin, CLIC5 mRNA” value was 5.04 log 2 scale and the “Margin, COL3A1 mRNA” value was 4.47 log 2 scale. The “Margin, CRH mRNA” value was 5.13 log 2 scale, the “Margin, CUZD1 mRNA” value was −2.4 log 2 scale and the “Margin, CYP26A1 mRNA” value was −2.51 log 2 scale. The “Margin, D21S2088E mRNA” value was −2.67 log 2 scale, the “Margin, DIO2 mRNA” value was 4.29 log 2 scale and the “Margin, DKK4 mRNA” value was −3.09 log 2 scale. The “Margin, DLX2 mRNA” value was 6.43 log 2 scale, the “Margin, DLX5 mRNA” value was 4.04 log 2 scale and the “Margin, DLX6 mRNA” value was 4.66 log 2 scale. For the same substance, the “Margin, EFNA1 mRNA” value was 4.35 log 2 scale, the “Margin, EPAS1 mRNA” value was 6.2 log 2 scale and the “Margin, ETV1 mRNA” value was −2.49 log 2 scale. The “Margin, FLJ25477 mRNA” value was 4.77 log 2 scale, the “Margin, FLJ90231 mRNA” value was −3.15 log 2 scale and the “Margin, FOXA2 mRNA (splice variant)” value was −3.38 log 2 scale. For the same substance, the “Margin, FOXF1 mRNA” value was 4.84 log 2 scale, the “Margin, GABRP mRNA” value was 7.34 log 2 scale and the “Margin, GATA3 mRNA” value was 6.21 log 2 scale. The “Margin, GATA5 mRNA” value was 4 log 2 scale, the “Margin, GDF3 mRNA” value was −3.47 log 2 scale and the “Margin, GPR64 mRNA” value was −2.46 log 2 scale. For the same substance, the “Margin, H19 mRNA” value was 3.98 log 2 scale, the “Margin, HAND1 mRNA” value was 7.27 log 2 scale and the “Margin, HAPLN1 mRNA” value was 8.04 log 2 scale. The “Margin, HESX1 mRNA” value was −2.36 log 2 scale, the “Margin, HEY1 mRNA” value was 3.93 log 2 scale and the “Margin, HHEX mRNA” value was −2.58 log 2 scale. The “Margin, HOXB6 mRNA” value was 5.19 log 2 scale, the “Margin, ID4 mRNA” value was 5.47 log 2 scale and the “Margin, IGFBP3 mRNA” value was 4.44 log 2 scale. The “Margin, IPO9 mRNA” value was −2.83 log 2 scale, the “Margin, ISL1 mRNA” value was 6.5 log 2 scale and the “Margin, KAL1 mRNA” value was −2.98 log 2 scale. The “Margin, KCND2 mRNA” value was −2.74 log 2 scale, the “Margin, KCTD12 mRNA” value was 4.01 log 2 scale and the “Margin, KIAA0882 mRNA” value was 3.81 log 2 scale. The “Margin, KLF4 mRNA” value was −2.4 log 2 scale, the “Margin, KRT7 mRNA” value was 3.91 log 2 scale and the “Margin, LCK mRNA” value was −2.65 log 2 scale. For the same substance, the “Margin, LECT1 mRNA” value was −2.55 log 2 scale, the “Margin, LEFTY1 mRNA” value was −6.56 log 2 scale and the “Margin, LEFTY2 mRNA” value was −3.12 log 2 scale. The “Margin, LIX1 mRNA” value was 4.3 log 2 scale, the “Margin, LOC152573 mRNA” value was −5.04 log 2 scale and the “Margin, LOC153469 mRNA” value was −4.72 log 2 scale. For the same substance, the “Margin, LOC387763 mRNA” value was 4.25 log 2 scale, the “Margin, LRAT mRNA” value was −4.97 log 2 scale and the “Margin, LRIG1 mRNA” value was −2.82 log 2 scale. The “Margin, LUM mRNA” value was 5.88 log 2 scale, the “Margin, MAL2 mRNA” value was −2.37 log 2 scale and the “Margin, MEGF10 mRNA” value was −3.14 log 2 scale. The “Margin, MEIS1 mRNA” value was 4.02 log 2 scale, the “Margin, MESP1 mRNA” value was 4.03 log 2 scale and the “Margin, MGC26963 mRNA” value was −4.02 log 2 scale. The “Margin, MSX1 mRNA” value was 4.28 log 2 scale, the “Margin, MSX2 mRNA” value was 5.43 log 2 scale and the “Margin, MYOCD mRNA” value was 4.49 log 2 scale. The “Margin, NANOG mRNA” value was −3.22 log 2 scale, the “Margin, NCRMS mRNA” value was −2.98 log 2 scale and the “Margin, NFE2L3 mRNA” value was −2.74 log 2 scale. The “Margin, NODAL mRNA” value was −2.93 log 2 scale, the “Margin, NOG mRNA” value was 4.37 log 2 scale and the “Margin, OLIG3 mRNA” value was −3.9 log 2 scale. The “Margin, OTX2 mRNA” value was −4.89 log 2 scale, the “Margin, PAPLN mRNA” value was −3.53 log 2 scale and the “Margin, PARG1 mRNA” value was 4.04 log 2 scale. For the same substance, the “Margin, PIPOX mRNA” value was −2.58 log 2 scale, the “Margin, POSTN mRNA” value was 5.83 log 2 scale and the “Margin, PPP2R2B mRNA” value was −3.6 log 2 scale. The “Margin, PRKD1 mRNA” value was 3.91 log 2 scale, the “Margin, PRSS12 mRNA” value was 4.09 log 2 scale and the “Margin, PTPRZ1 mRNA” value was −2.37 log 2 scale. The “Margin, RAM2 mRNA” value was −2.8 log 2 scale, the “Margin, RET mRNA” value was −2.97 log 2 scale and the “Margin, RGS4 mRNA” value was 3.85 log 2 scale. For the same substance, the “Margin, RGS5 mRNA” value was 4.46 log 2 scale, the “Margin, RGS13 mRNA” value was 4.42 log 2 scale and the “Margin, SEMA3C mRNA” value was 3.89 log 2 scale. For the same substance, the “Margin, SFRP1 mRNA” value was −2.36 log 2 scale, the “Margin, SFRP2 mRNA” value was −2.75 log 2 scale and the “Margin, SLC1A6 mRNA” value was −2.39 log 2 scale. For the same substance, the “Margin, SLC16A4 mRNA” value was 4 log 2 scale, the “Margin, SLC40A1 mRNA” value was 4.19 log 2 scale and the “Margin, SNAI2 mRNA” value was 4.92 log 2 scale. For the same substance, the “Margin, SOCS3 mRNA” value was 3.98 log 2 scale, the “Margin, SOX2 mRNA” value was −3.64 log 2 scale and the “Margin, SOX7 mRNA” value was 4.13 log 2 scale. For the same substance, the “Margin, SYNPO2 mRNA” value was 4.46 log 2 scale, the “Margin, TBX3 mRNA” value was 6.42 log 2 scale and the “Margin, TFAP2A mRNA” value was 4.98 log 2 scale. The “Margin, TFCP2L2 mRNA” value was 3.87 log 2 scale, the “Margin, TFCP2L4 mRNA” value was 4.92 log 2 scale and the “Margin, THBS2 mRNA” value was −3.73 log 2 scale. For the same substance, the “Margin, TIMP4 mRNA” value was −2.9 log 2 scale, the “Margin, TMEM46 mRNA” value was −3.57 log 2 scale and the “Margin, TOX mRNA” value was −3.03 log 2 scale. For the same substance, the “Margin, TRIM55 mRNA” value was 4.24 log 2 scale, the “Margin, TRPC4 mRNA” value was −2.52 log 2 scale and the “Margin, UGT8 mRNA” value was −3.57 log 2 scale. For the same substance, the “Margin, USP44 mRNA” value was −3.63 log 2 scale and the “Margin, UTF1 mRNA” value was −2.47 log 2 scale.
